Measured values: PubChem BioAssay (NCI)
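Interpolation was linear, between the two tested concentrations surrounding the appropriate level; five concentrations were tested over 48 hours in 96-well plates. The concentration for 50% growth inhibition is given as GI50. TGI: total growth inhibition.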

Columns and labels:
Assay in all cases: growth of human tumour cells (NCI), 48 h; in the data active = GI50 below about 0.43 µM; inactive = the rest
RPMI-8226 leukemia = system: RPMI-8226 leukemia
UO-31 renal = system: UO-31 renal
SK-MEL-2 melanoma = system: SK-MEL-2 melanoma
OVCAR-3 ovarian = system: OVCAR-3 ovarian
SF-295 CNS = system: SF-295 CNS
CCRF-CEM leukemia = system: CCRF-CEM leukemia
UACC-62 melanoma = system: UACC-62 melanoma
U251 CNS = system: U251 CNS
K-562 leukemia = system: K-562 leukemia
IGROV1 ovarian = system: IGROV1 ovarian

COc1ccc(C2SC(C)C(=O)N2NC(=O)C(O)c2ccccc2)cc1OC (stereo not given)
> 100 µM: TGI (RPMI-8226 leukemia) | TGI (UO-31 renal) | TGI (SK-MEL-2 melanoma) | TGI (OVCAR-3 ovarian) | TGI (SF-295 CNS) | TGI (CCRF-CEM leukemia) | TGI (UACC-62 melanoma) | TGI (U251 CNS) | TGI (K-562 leukemia) | TGI (IGROV1 ovarian)
inactive: GI50 (RPMI-8226 leukemia) > 100 µM | GI50 (UO-31 renal) > 100 µM | GI50 (SK-MEL-2 melanoma) > 100 µM | GI50 (OVCAR-3 ovarian) > 100 µM | GI50 (SF-295 CNS) > 100 µM | GI50 (CCRF-CEM leukemia) > 100 µM | GI50 (UACC-62 melanoma) > 100 µM | GI50 (U251 CNS) > 100 µM | GI50 (K-562 leukemia) > 100 µM | GI50 (IGROV1 ovarian) > 100 µM

COc1ccc(OC)c(-c2c(C#N)c(N)nc(N3CCOCC3)c2C#N)c1
inactive: GI50 (RPMI-8226 leukemia) > 100 µM | GI50 (UO-31 renal) 46 µM | GI50 (SK-MEL-2 melanoma) > 100 µM | GI50 (OVCAR-3 ovarian) 39.3 µM | GI50 (SF-295 CNS) > 100 µM | GI50 (CCRF-CEM leukemia) > 100 µM | GI50 (UACC-62 melanoma) 44.5 µM | GI50 (U251 CNS) > 100 µM | GI50 (K-562 leukemia) > 100 µM | GI50 (IGROV1 ovarian) 73.9 µM
> 100 µM: TGI (RPMI-8226 leukemia) | TGI (UO-31 renal) | TGI (SK-MEL-2 melanoma) | TGI (OVCAR-3 ovarian) | TGI (SF-295 CNS) | TGI (CCRF-CEM leukemia) | TGI (UACC-62 melanoma) | TGI (U251 CNS) | TGI (K-562 leukemia) | TGI (IGROV1 ovarian)

O=c1nc2oc3ccc4ccccc4c3cc-2s1
> 100 µM: TGI (RPMI-8226 leukemia) | TGI (UO-31 renal) | TGI (SK-MEL-2 melanoma) | TGI (CCRF-CEM leukemia) | TGI (UACC-62 melanoma) | TGI (U251 CNS) | TGI (K-562 leukemia) | TGI (IGROV1 ovarian)
inactive: GI50 (RPMI-8226 leukemia) 50.9 µM | GI50 (UO-31 renal) 33.7 µM | GI50 (SK-MEL-2 melanoma) 3.79 µM | GI50 (OVCAR-3 ovarian) 0.457 µM | GI50 (SF-295 CNS) 2.96 µM | GI50 (CCRF-CEM leukemia) 0.989 µM | GI50 (UACC-62 melanoma) 1.22 µM | GI50 (U251 CNS) 4.4 µM | GI50 (K-562 leukemia) 0.526 µM | GI50 (IGROV1 ovarian) 10.2 µM
> 92.7 µM: TGI (SF-295 CNS)
> 23.7 µM: TGI (OVCAR-3 ovarian)

Cc1ccc(N2C(=O)C3C=CC(n4[nH]c(=O)n(Cc5ccccc5)c4=O)CC3C2=O)cc1 (stereo not given)
> 100 µM: TGI (RPMI-8226 leukemia) | TGI (UO-31 renal) | TGI (SK-MEL-2 melanoma) | TGI (OVCAR-3 ovarian) | TGI (SF-295 CNS) | TGI (CCRF-CEM leukemia) | TGI (UACC-62 melanoma) | TGI (U251 CNS) | TGI (K-562 leukemia) | TGI (IGROV1 ovarian)

CS[C@]12C(=O)C[C@@]3(C)[C@@H](CC[C@]3(O)C(=O)CO)[C@@H]1CCC1=CC(=O)CC[C@@]12C
> 100 µM: TGI (RPMI-8226 leukemia) | TGI (UO-31 renal) | TGI (SK-MEL-2 melanoma) | TGI (OVCAR-3 ovarian) | TGI (SF-295 CNS) | TGI (CCRF-CEM leukemia) | TGI (UACC-62 melanoma) | TGI (U251 CNS) | TGI (K-562 leukemia) | TGI (IGROV1 ovarian)

COC(=O)C1=C(c2cc(OC)c(OC)c(OC)c2)OC(c2ccc(OC)c(OC)c2)C1 (stereo not given)
> 100 µM: TGI (RPMI-8226 leukemia) | TGI (UO-31 renal) | TGI (SK-MEL-2 melanoma) | TGI (OVCAR-3 ovarian) | TGI (SF-295 CNS) | TGI (CCRF-CEM leukemia) | TGI (UACC-62 melanoma) | TGI (U251 CNS) | TGI (K-562 leukemia) | TGI (IGROV1 ovarian)

CC(=O)C1C(=O)C(=O)N(c2ccccc2C(C)C)C1=O (stereo not given)
> 100 µM: TGI (RPMI-8226 leukemia) | TGI (UO-31 renal) | TGI (SK-MEL-2 melanoma) | TGI (OVCAR-3 ovarian) | TGI (SF-295 CNS) | TGI (CCRF-CEM leukemia) | TGI (UACC-62 melanoma) | TGI (U251 CNS) | TGI (K-562 leukemia) | TGI (IGROV1 ovarian)

COc1ccc(OC)c2c1C(=O)C1CC1(Br)C2=O (stereo not given)
> 100 µM: TGI (RPMI-8226 leukemia) | TGI (UO-31 renal) | TGI (SK-MEL-2 melanoma) | TGI (OVCAR-3 ovarian) | TGI (SF-295 CNS) | TGI (CCRF-CEM leukemia) | TGI (UACC-62 melanoma) | TGI (U251 CNS) | TGI (K-562 leukemia) | TGI (IGROV1 ovarian)

O=C1c2ccccc2-c2c1c1ccccc1c(=O)n2CCN1CCOCC1
inactive: GI50 (RPMI-8226 leukemia) 39 µM | GI50 (UO-31 renal) 64.4 µM | GI50 (SK-MEL-2 melanoma) > 100 µM | GI50 (OVCAR-3 ovarian) 82.2 µM | GI50 (SF-295 CNS) 48.1 µM | GI50 (CCRF-CEM leukemia) 49.1 µM | GI50 (UACC-62 melanoma) 29.4 µM | GI50 (U251 CNS) 52.4 µM | GI50 (K-562 leukemia) 25.8 µM | GI50 (IGROV1 ovarian) 79.4 µM
73.5 µM: TGI (K-562 leukemia)
> 100 µM: TGI (RPMI-8226 leukemia) | TGI (UO-31 renal) | TGI (SK-MEL-2 melanoma) | TGI (OVCAR-3 ovarian) | TGI (SF-295 CNS) | TGI (CCRF-CEM leukemia) | TGI (UACC-62 melanoma) | TGI (U251 CNS) | TGI (IGROV1 ovarian)

C/C=C(\C)C(=O)O[C@H]1C=CC(=O)O[C@@H]1CC[C@H](O)[C@H](C)O
> 73.9 µM: TGI (UACC-62 melanoma)
98.1 µM: TGI (SK-MEL-2 melanoma)
> 100 µM: TGI (OVCAR-3 ovarian) | TGI (SF-295 CNS) | TGI (U251 CNS) | TGI (K-562 leukemia) | TGI (IGROV1 ovarian)
66.2 µM: TGI (CCRF-CEM leukemia)
> 67.4 µM: TGI (UO-31 renal)
58.7 µM: TGI (RPMI-8226 leukemia)
inactive: GI50 (RPMI-8226 leukemia) 22.8 µM | GI50 (UO-31 renal) 20.5 µM | GI50 (SK-MEL-2 melanoma) 37.6 µM | GI50 (OVCAR-3 ovarian) 36.5 µM | GI50 (SF-295 CNS) > 100 µM | GI50 (CCRF-CEM leukemia) 21.3 µM | GI50 (UACC-62 melanoma) 38.5 µM | GI50 (U251 CNS) 55.3 µM | GI50 (K-562 leukemia) 33 µM | GI50 (IGROV1 ovarian) 42 µM

Nc1nc(Nc2ccc(C3CCC(N4CCOCC4)CC3)cc2)nn1-c1ccccn1 (stereo not given)
55.9 µM: TGI (CCRF-CEM leukemia)
> 88.3 µM: TGI (UACC-62 melanoma)
44.6 µM: TGI (OVCAR-3 ovarian)
> 33.7 µM: TGI (UO-31 renal)
> 61.8 µM: TGI (SK-MEL-2 melanoma)
inactive: GI50 (RPMI-8226 leukemia) 2.57 µM | GI50 (UO-31 renal) 2.48 µM | GI50 (SK-MEL-2 melanoma) 7.77 µM | GI50 (OVCAR-3 ovarian) 9.86 µM | GI50 (SF-295 CNS) 2.92 µM | GI50 (CCRF-CEM leukemia) 3.25 µM | GI50 (UACC-62 melanoma) 7.27 µM | GI50 (U251 CNS) 5.05 µM | GI50 (K-562 leukemia) 2.83 µM | GI50 (IGROV1 ovarian) 3.57 µM
> 100 µM: TGI (U251 CNS) | TGI (K-562 leukemia) | TGI (IGROV1 ovarian)
10.9 µM: TGI (SF-295 CNS)
6.1 µM: TGI (RPMI-8226 leukemia)

O=[N+]([O-])c1cccc([As]=[As]c2cccc([N+](=O)[O-])c2)c1 (stereo not given)
0.112 µM: TGI (CCRF-CEM leukemia)
0.272 µM: TGI (SK-MEL-2 melanoma)
0.255 µM: TGI (UO-31 renal)
0.106 µM: TGI (K-562 leukemia)
0.34 µM: TGI (SF-295 CNS)
0.22 µM: TGI (U251 CNS)
active: GI50 (RPMI-8226 leukemia) 0.0495 µM | GI50 (UO-31 renal) 0.119 µM | GI50 (SK-MEL-2 melanoma) 0.13 µM | GI50 (OVCAR-3 ovarian) 0.0499 µM | GI50 (SF-295 CNS) 0.178 µM | GI50 (CCRF-CEM leukemia) 0.0273 µM | GI50 (UACC-62 melanoma) 0.0885 µM | GI50 (U251 CNS) 0.103 µM | GI50 (K-562 leukemia) 0.0327 µM | GI50 (IGROV1 ovarian) 0.0587 µM
0.16 µM: TGI (OVCAR-3 ovarian)
0.211 µM: TGI (IGROV1 ovarian)
0.18 µM: TGI (RPMI-8226 leukemia)
0.212 µM: TGI (UACC-62 melanoma)

O=C(/C=C/c1ccc([N+](=O)[O-])cc1)c1ccc2c3c(cccc13)CC2
> 29.6 µM: TGI (U251 CNS)
> 62.6 µM: TGI (UO-31 renal)
53.2 µM: TGI (IGROV1 ovarian)
10.1 µM: TGI (OVCAR-3 ovarian)
4.84 µM: TGI (RPMI-8226 leukemia)
> 100 µM: TGI (SK-MEL-2 melanoma) | TGI (SF-295 CNS) | TGI (CCRF-CEM leukemia) | TGI (UACC-62 melanoma) | TGI (K-562 leukemia)
inactive: GI50 (RPMI-8226 leukemia) 1.64 µM | GI50 (UO-31 renal) 10.4 µM | GI50 (SK-MEL-2 melanoma) > 100 µM | GI50 (OVCAR-3 ovarian) 3 µM | GI50 (SF-295 CNS) 6.23 µM | GI50 (CCRF-CEM leukemia) 5.21 µM | GI50 (UACC-62 melanoma) > 48.4 µM | GI50 (U251 CNS) 2.65 µM | GI50 (K-562 leukemia) 4.37 µM | GI50 (IGROV1 ovarian) 4.36 µM

Cn1cc(C2=C(c3cccc(OCC(O)CO)c3)C(=O)NC2=O)c2ccccc21 (stereo not given)
inactive: GI50 (RPMI-8226 leukemia) > 25 µM | GI50 (UO-31 renal) > 25 µM | GI50 (SK-MEL-2 melanoma) > 25 µM | GI50 (OVCAR-3 ovarian) > 25 µM | GI50 (SF-295 CNS) > 25 µM | GI50 (CCRF-CEM leukemia) > 25 µM | GI50 (UACC-62 melanoma) > 25 µM | GI50 (U251 CNS) > 25 µM | GI50 (K-562 leukemia) > 25 µM | GI50 (IGROV1 ovarian) > 25 µM
> 25 µM: TGI (RPMI-8226 leukemia) | TGI (UO-31 renal) | TGI (SK-MEL-2 melanoma) | TGI (OVCAR-3 ovarian) | TGI (SF-295 CNS) | TGI (CCRF-CEM leukemia) | TGI (UACC-62 melanoma) | TGI (U251 CNS) | TGI (K-562 leukemia) | TGI (IGROV1 ovarian)
